Test results as given in patent publication US7449545B2, “Antimicrobial bolisin peptides” (IPF Pharmaceuticals GmbH, priority 2001, dated 2008).
Ends that are not written are not given here.

Columns and labels:
Format in all cases: cell-based
[1] = tested on: Streptococcus pneumoniae DSM 11865 (penicillin-resistant); conditions: DSM 11865, 2 h
Description: (§1) The bolisin analogues of the present invention were examined for their suitability as antibiotic therapeutical agents by means of various biological tests. Thus, the chemically synthesized peptides were examined for their antimicrobial effectiveness against three Gram-positive and three Gram-negative bacterial strains as well as against a yeast.
(§2) The following microorganisms were used: • Gram-positive: Staphylococcus aureus ATCC 25923 • Enterococcus faecalis ATCC 51299 (vancomycin-resistant) • Streptococcus pneumoniae DSM 11865 (penicillin-resistant) • Gram-negative: Escherichia coli ATCC 25922 • Pseudomonas aeruginosa ATCC 9027 • Klebsiella pneumoniae ATCC 10031 • Yeast: Candida albicans ATCC 10231
(§3) The antibiotic activity of bolisin analogues was examined by determining the minimum inhibition concentration. […] This method allows to obtain a quantitative result about the antimicrobial potency of the peptides. These examinations were performed by analogy with the recommendations (M7-A3) edited by the NCCLS (National Committee for Clinical Laboratory Standards) by applying a dilution test in a liquid medium using chemically synthesized peptides (peptide sequences according to claims 1 to 3). Mueller Hinton Broth was used as the test medium according to the NCCLS recommendations unless indicated otherwise. […] The minimum inhibition concentrations are stated in [μg/ml].
(§4) A complete growth inhibition could not be achieved in this case. For determining the minimum inhibition concentration, the following microorganisms were used: • 1. Staphylococcus aureus ATCC 25923 • 2. Enterococcus faecalis ATCC 51299 (vancomycin-resistant) • 3. Streptococcus pneumoniae DSM 11865 (penicillin-resistant) • 4. Escherichia coli ATCC 25922 • 5. Pseudomonas aeruginosa ATCC 9027 • 6. Klebsiella pneumoniae ATCC 10031 • 7. Candida albicans ATCC 10231

[2] = tested on: Staphylococcus aureus ATCC 25923; conditions: ATCC 25923, 2 h
Description: as §1, §2, §3, §4

[3] = tested on: Candida albicans ATCC 10231; conditions: for peptide concentration giving 75% inhibition of growth (value in parentheses): Mueller Hinton Broth, complete growth inhibition not achieved; for minimum inhibition concentration: ATCC 10231, 2 h
Description: as §1, §2, §3, §4

[4] = tested on: Escherichia coli ATCC 25922; conditions: ATCC 25922, 2 h
Description: as §1, §2, §3, §4

[5] = tested on: Enterococcus faecalis ATCC 51299 (vancomycin-resistant); conditions: ATCC 51299, 2 h
Description: as §1, §2, §3, §4

[6] = tested on: Klebsiella pneumoniae ATCC 10031; conditions: ATCC 10031, 2 h
Description: as §1, §2, §3, §4

[7] = tested on: Pseudomonas aeruginosa ATCC 9027; conditions: Mueller Hinton Broth; complete growth inhibition not achieved
Description: as §1, §2
The antibiotic activity of bolisin analogues was examined by determining the minimum inhibition concentration. The minimum inhibition concentration of an analogue designates the lowest peptide concentration which is required to inhibit the growth of microorganisms completely after an incubation time of 18±2 h. This method allows to obtain a quantitative result about the antimicrobial potency of the peptides. These examinations were performed by analogy with the recommendations (M7-A3) edited by the NCCLS (National Committee for Clinical Laboratory Standards) by applying a dilution test in a liquid medium using chemically synthesized peptides (peptide sequences according to claims 1 to 3). Mueller Hinton Broth was used as the test medium according to the NCCLS recommendations unless indicated otherwise. […] The minimum inhibition concentrations are stated in [μg/ml].
as §4

With “YIVYKIRSAKKRKKALK-OH [BOL-56, YIVYKIRSAKKRKKALK]” the minimum inhibition concentration [1] was >300 µg/mL, the minimum inhibition concentration [2] was >300 µg/mL and the “peptide concentration giving 75% inhibition of growth (value in parentheses)” value [3] was “(300) μg/ml”. The minimum inhibition concentration [4] was >300 µg/mL, the minimum inhibition concentration [5] was >300 µg/mL and the minimum inhibition concentration [6] was 300 µg/mL. The “peptide concentration giving 75% inhibition of growth (value in parentheses)” value [7] was “(200) μg/ml”.

In the case of “YIVYKIRSAKKRWKALK-OH [BOL-57, YIVYKIRSAKKRWKALK]”, the minimum inhibition concentration [1] is reported as >300 µg/mL, the minimum inhibition concentration [2] is reported as >300 µg/mL and the minimum inhibition concentration [3] is reported as 300 µg/mL. The minimum inhibition concentration [4] was >300 µg/mL, the minimum inhibition concentration [5] was >300 µg/mL and the minimum inhibition concentration [6] was 300 µg/mL. For the same substance, the “peptide concentration giving 75% inhibition of growth (value in parentheses)” value [7] was “(200) μg/ml”.

In the case of “YIVYKIRWARKRRKAL [BOL-72, YIVYKIRWARKRRKAL]”, the minimum inhibition concentration [1] is reported as 18.75 µg/mL, the minimum inhibition concentration [2] is reported as 75 µg/mL and the minimum inhibition concentration [3] is reported as 18.75 µg/mL. The minimum inhibition concentration [4] was 100 µg/mL, the minimum inhibition concentration [5] was 25 µg/mL and the minimum inhibition concentration [6] was 18.75 µg/mL. For the same substance, the “peptide concentration giving 75% inhibition of growth (value in parentheses)” value [7] was “(12.5) μg/ml”.

“YIVYKIRSAWKRKKALK-OH [BOL-58, YIVYKIRSAWKRKKALK]” was tested, and the minimum inhibition concentration [1] was 300 µg/mL, the minimum inhibition concentration [2] was >300 µg/mL and the “peptide concentration giving 75% inhibition of growth (value in parentheses)” value [3] was “(75) μg/ml”. The minimum inhibition concentration [4] was >300 µg/mL, the minimum inhibition concentration [5] was >300 µg/mL and the minimum inhibition concentration [6] was 100 µg/mL. For the same substance, the “peptide concentration giving 75% inhibition of growth (value in parentheses)” value [7] was “(100) μg/ml”.

“YIVYKIRSARKRWKALK-OH [BOL-46, YIVYKIRSARKRWKALK]” gave a minimum inhibition concentration [1] of 200 µg/mL, a minimum inhibition concentration [2] of 300 µg/mL and a minimum inhibition concentration [3] of 150 µg/mL. The minimum inhibition concentration [4] was 200 µg/mL, the minimum inhibition concentration [5] was 200 µg/mL and the minimum inhibition concentration [6] was 150 µg/mL. For the same substance, the “peptide concentration giving 75% inhibition of growth (value in parentheses)” value [7] was “(100) μg/ml”.

“YIVYKIRWARKRSKALK-OH [BOL-49, YIVYKIRWARKRSKALK]” was tested, and the minimum inhibition concentration [1] was 18.75 µg/mL, the minimum inhibition concentration [2] was 75 µg/mL and the minimum inhibition concentration [3] was 18.75 µg/mL. For the same substance, the minimum inhibition concentration [4] was 50 µg/mL, the minimum inhibition concentration [5] was 25 µg/mL and the minimum inhibition concentration [6] was 18.75 µg/mL. For the same substance, the “peptide concentration giving 75% inhibition of growth (value in parentheses)” value [7] was “(12.5) μg/ml”.

“YIVYKIRSAWKRWKALK-OH [BOL-45, YIVYKIRSAWKRWKALK]” showed a minimum inhibition concentration [1] of 100 µg/mL, a minimum inhibition concentration [2] of 18.75 µg/mL and a minimum inhibition concentration [3] of 18.75 µg/mL. The minimum inhibition concentration [4] was 12.5 µg/mL, the minimum inhibition concentration [5] was 100 µg/mL and the minimum inhibition concentration [6] was 4.7 µg/mL. For the same substance, the “peptide concentration giving 75% inhibition of growth (value in parentheses)” value [7] was “(25) μg/ml”.

“YIVRKIRSAWKRRKALK-OH [BOL-80, YIVRKIRSAWKRRKALK]” was tested, and the minimum inhibition concentration [1] was >300 µg/mL, the minimum inhibition concentration [2] was >300 µg/mL and the minimum inhibition concentration [3] was 37.5 µg/mL. The minimum inhibition concentration [4] was >300 µg/mL, the minimum inhibition concentration [5] was >300 µg/mL and the minimum inhibition concentration [6] was 150 µg/mL. For the same substance, the “peptide concentration giving 75% inhibition of growth (value in parentheses)” value [7] was “(18.75) μg/ml”.

With “YIVRKIRSAWKRWKALK-OH [BOL-79, YIVRKIRSAWKRWKALK]” the minimum inhibition concentration [1] was 300 µg/mL, the minimum inhibition concentration [2] was 9.375 µg/mL and the minimum inhibition concentration [3] was 4.7 µg/mL. For the same substance, the minimum inhibition concentration [4] was 3.125 µg/mL, the minimum inhibition concentration [5] was >300 µg/mL and the minimum inhibition concentration [6] was 2.35 µg/mL. For the same substance, the “peptide concentration giving 75% inhibition of growth (value in parentheses)” value [7] was “(4.7) μg/ml”.

For “YIVYKIRSARKRWKAL [BOL-68, YIVYKIRSARKRWKAL]”, the minimum inhibition concentration [1] was 300 µg/mL, the minimum inhibition concentration [2] was 200 µg/mL and the minimum inhibition concentration [3] was 200 µg/mL. The minimum inhibition concentration [4] was 200 µg/mL, the minimum inhibition concentration [5] was 200 µg/mL and the minimum inhibition concentration [6] was 300 µg/mL. For the same substance, the “peptide concentration giving 75% inhibition of growth (value in parentheses)” value [7] was “(200) μg/ml”.
